Data: ChEMBL document CHEMBL4385604, “Identification of Pyrrolo[2,3- d]pyrimidine-Based Derivatives as Potent and Orally Effective Fms-like Tyrosine Receptor Kinase 3 (FLT3) Inhibitors for Treating Acute Myelogenous Leukemia” (J Med Chem, 2019)
Activity calls are given as the source filed them. The rule behind the calls is not given here.

Legend:
[1] = Oral bioavailability in Sprague-Dawley rat at 5 mg/kg by LC-MS/MS analysis; format: ADME, organism-based; conditions: in vivo
MOLM-13 [2] = assay: cells; conditions: Homo sapiens, MOLM-13, 72 h
Description: Antiproliferative activity against human MOLM13 cells harboring FLT3-ITD mutant measured after 72 hrs by MTT assay

HL-60 = assay: Antiproliferative activity against human HL60 cells harboring wild-type FLT3 measured after 72 hrs by MTT assay; format: functional, cell-based; conditions: HL-60, 72 h
RS4-11 = assay: Antiproliferative activity against human RS4:11 cells harboring wild-type FLT3 measured after 72 hrs by MTT assay; format: functional, cell-based; conditions: RS4-11, 72 h
BaF3 [3] = assay: cells; conditions: Mus musculus, BaF3, 72 h
Description: Antiproliferative activity against mouse BAF3 cells harboring FLT3-ITD mutant measured after 72 hrs by MTT assay

[4] = Tmax in Sprague-Dawley rat at 5 mg/kg, po by LC-MS/MS analysis; format: ADME, organism-based; conditions: in vivo
[5] = biological target: T1, Receptor-type tyrosine-protein kinase FLT3 (Homo sapiens, UniProt P36888)
T1 sequence (P36888 whole entry): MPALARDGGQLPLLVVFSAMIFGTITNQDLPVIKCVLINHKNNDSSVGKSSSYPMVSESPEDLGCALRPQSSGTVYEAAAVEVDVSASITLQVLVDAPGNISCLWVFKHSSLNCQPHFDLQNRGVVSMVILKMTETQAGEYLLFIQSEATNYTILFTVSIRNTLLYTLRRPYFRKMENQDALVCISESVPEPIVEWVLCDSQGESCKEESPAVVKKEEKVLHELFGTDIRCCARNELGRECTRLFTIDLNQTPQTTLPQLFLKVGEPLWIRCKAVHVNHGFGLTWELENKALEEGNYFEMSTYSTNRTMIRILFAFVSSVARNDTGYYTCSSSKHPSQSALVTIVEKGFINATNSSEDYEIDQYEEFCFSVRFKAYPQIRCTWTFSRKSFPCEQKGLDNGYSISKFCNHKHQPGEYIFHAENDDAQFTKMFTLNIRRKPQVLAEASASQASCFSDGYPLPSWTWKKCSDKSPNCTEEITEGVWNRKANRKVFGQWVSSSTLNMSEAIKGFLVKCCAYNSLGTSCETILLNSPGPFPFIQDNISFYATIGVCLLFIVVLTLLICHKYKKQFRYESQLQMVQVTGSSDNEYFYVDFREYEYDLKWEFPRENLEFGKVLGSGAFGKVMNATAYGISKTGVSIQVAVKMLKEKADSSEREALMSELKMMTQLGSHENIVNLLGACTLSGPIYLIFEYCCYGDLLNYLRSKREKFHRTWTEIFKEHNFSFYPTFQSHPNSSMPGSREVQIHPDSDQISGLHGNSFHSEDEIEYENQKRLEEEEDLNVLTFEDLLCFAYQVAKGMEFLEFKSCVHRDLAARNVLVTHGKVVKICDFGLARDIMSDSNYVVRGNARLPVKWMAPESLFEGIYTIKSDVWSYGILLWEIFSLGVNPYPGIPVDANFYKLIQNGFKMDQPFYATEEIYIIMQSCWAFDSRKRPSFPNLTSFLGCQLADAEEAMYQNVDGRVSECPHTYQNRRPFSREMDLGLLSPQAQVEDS

MV4-11 [6] = assay: cells; conditions: Homo sapiens, MV4-11, 72 h
Description: Antiproliferative activity against human MV4-11 cells harboring FLT3-ITD mutant measured after 72 hrs by MTT assay

BaF3 [7] = assay: cells; conditions: Mus musculus, BaF3, 72 h; remark: listed apart in the source
Description: Antiproliferative activity against mouse BAF3 cells harboring FLT3-ITD-F691L mutant measured after 72 hrs by MTT assay

[8] = Elimination half-life in Sprague-Dawley rat at 5 mg/kg, po by LC-MS/MS analysis; format: ADME, organism-based; conditions: in vivo, read-out: beta t1/2 (converted)
[9] = Plasma clearance in Sprague-Dawley rat at 5 mg/kg, po by LC-MS/MS analysis; format: ADME, organism-based
BaF3 [10] = assay: cells; conditions: Mus musculus, BaF3, 72 h; remark: listed apart in the source
Description: Antiproliferative activity against mouse BAF3 cells harboring FLT3-ITD-D835V mutant measured after 72 hrs by MTT assay

MV4-11 [11] = assay: Antitumour activity against human MV4-11 cells xenografted in NOD/SCID mouse assessed as tumour growth inhibition; format: functional, cell-based
MOLM-13 [12] = assay: Antitumour activity against human MOLM13 cells xenografted in NOD/SCID mouse assessed as tumour growth inhibition; format: functional, cell-based
MOLM-13 [13] = assay: Potency index, ratio of quizartinib IC50 to test compound IC50 for human MOLM13 cells harboring FLT3-ITD mutant; format: functional

Row | bioavailability [1] [%] | IC50 (MOLM-13 [2]) [nM] | IC50 (HL-60) [nM] | IC50 (RS4-11) [nM] | IC50 (BaF3 [3]) [nM] | Tmax [4] [h] | IC50 [5] [nM] | IC50 (MV4-11 [6]) [nM] | IC50 (BaF3 [7]) [nM] | half-life [8] [h] | CL/F [9] [mL/min/kg] | IC50 (BaF3 [10]) [nM] | Structure (SMILES) | TGI (MV4-11 [11]) | TGI (MOLM-13 [12]) | Ratio IC50 (MOLM-13 [13])
1 | 11.2 | 0.038 | > 1000 | > 1000 | 0.97 | 0.44 | 9 | 0.032 | 3.61 | 3.7 | 153 | 9.17 | CC(C)(C)c1cc(NC(=O)Nc2ccc(-c3cn(CC#N)c4ncnc(N)c34)cc2)no1 |  |  | 
2 | 12.1 | 0.971 | > 1000 | > 1000 | 5.3 | 0.5 | 20 | 0.1 | 12.6 | 4.22 | 255 | 12.2 | CC(C)n1cc(-c2ccc(NC(=O)Nc3cc(C(C)(C)C)on3)cc2)c2c(N)ncnc21 |  |  | 
3 | 25.6 | 0.007 | > 1000 | > 1000 | 0.25 | 0.88 | 4 | 0.131 | 10.7 | 2.54 | 56.3 | 18 | CC(C)(C)c1cc(NC(=O)Nc2ccc(-c3c[nH]c4ncnc(N)c34)cc2F)no1 |  |  | 
4 | 9.8 | 0.14 | > 1000 | > 1000 | 1.73 | 0.31 | 16 | 0.876 | 13.6 | 2.77 | 801 | 14.7 | CC(C)(C)c1cc(NC(=O)Nc2ccc(-c3cn(CCCCO)c4ncnc(N)c34)cc2)no1 |  |  | 
5 |  | 1.95 | > 1000 | > 1000 | 3.1 |  | 31 | 1.73 | 28.2 |  |  | 28.5 | CCN(CC)C(=O)n1cc(-c2ccc(NC(=O)Nc3cc(C(C)(C)C)on3)cc2)c2c(N)ncnc21 |  |  | 
6 |  | 2.77 | > 1000 | > 1000 | 8.67 |  | 113 | 10.3 | 216 |  |  | 305 | CC(C)=CCn1cc(-c2ccc(NC(=O)Nc3cc(C(C)(C)C)on3)cc2)c2c(N)ncnc21 |  |  | 

Further lines, the compound ahead of its results:

Row | Structure (SMILES) | bioavailability [1] [%] | IC50 (MOLM-13 [2]) [nM] | IC50 (HL-60) [nM] | IC50 (RS4-11) [nM] | IC50 (BaF3 [3]) [nM] | Tmax [4] [h] | IC50 [5] [nM] | IC50 (MV4-11 [6]) [nM] | IC50 (BaF3 [7]) [nM] | half-life [8] [h] | CL/F [9] [mL/min/kg] | IC50 (BaF3 [10]) [nM] | TGI (MV4-11 [11]) | TGI (MOLM-13 [12]) | Ratio IC50 (MOLM-13 [13])
7 | CC(C)(C)c1cc(NC(=O)Nc2ccc(-c3c[nH]c4ncnc(N)c34)cc2)no1 | 22.5 | < 0.001 | > 1000 | > 1000 | 0.16 | 0.28 | 6 | 0.043 | 2.35 | 6.22 | 14.8 | 4.83 | inactive | inactive | >100
8 | C#CCn1cc(-c2ccc(NC(=O)Nc3cc(C(C)(C)C)on3)cc2)c2c(N)ncnc21 | 40 | 0.262 | > 1000 | > 1000 | 1.66 | 0.83 | 13 | 0.602 | 13.9 | 2.78 | 28.3 | 21.1 |  |  | 
9 | CC(C)(C)c1cc(NC(=O)Nc2ccc(-c3cn(CCN4CCOCC4)c4ncnc(N)c34)cc2)no1 |  | 1.15 | > 1000 | > 1000 | 1.07 |  | 20 | 0.329 | 34.8 |  |  | 52.4 | inactive | inactive | 
10 | CC(C)(C)c1cc(NC(=O)Nc2ccc(-c3cn(CCCN4CCOCC4)c4ncnc(N)c34)cc2)no1 |  | 0.193 | > 1000 | > 1000 | 0.99 |  | 9 | 0.069 | 32.1 |  |  | 61.8 | inactive | inactive | 
11 | Cn1cc(-c2ccc(NC(=O)Nc3cc(C(C)(C)C)on3)cc2)c2c(N)ncnc21 |  | 0.014 | > 1000 | > 1000 | 1.44 |  | 7 | 0.311 | 27.9 |  |  | 46.2 |  |  | 
12 | CC(C)(C)c1cc(NC(=O)Nc2ccc(-c3cn(CCC#N)c4ncnc(N)c34)cc2F)no1 |  | 2.33 | > 1000 | > 1000 | 4.26 |  | 22 | 2.21 | 31.5 |  |  | 112 |  |  | 
13 | CC(C)(C)OC(=O)n1cc(-c2ccc(NC(=O)Nc3cc(C(C)(C)C)on3)cc2)c2c(N)ncnc21 |  | 0.081 | > 1000 | > 1000 | 1.28 |  | 25 | 0.107 | 8.92 |  |  | 12.4 |  |  | 
